assay: Inhibition of rabbit platelet PDE5 using [3H]cGMP as substrate after 30 mins by scintillation proximity assay; parameters: species or system Oryctolagus cuniculus

IC50 [nM]	Structure (SMILES)
3.3	CCCc1nn(C)c2c(=O)[nH]c(-c3cc(S(=O)(=O)N4CCN(C)CC4)ccc3OCC)nc12
7.2	CCCOc1ccc(S(=O)(=O)N2CCN(C)CC2)cc1-c1nc(CC)c(I)c(=O)[nH]1
51.8	CCCOc1ccc(S(=O)(=O)N2CCN(C)CC2)cc1-c1nc(CC)cc(=O)[nH]1

Source: ChEMBL document CHEMBL1914353, “Utilization of halogen bond in lead optimization: a case study of rational design of potent phosphodiesterase type 5 (PDE5) inhibitors” (J Med Chem, 2011)
